From ChEMBL document CHEMBL4417637, “Sensitization of cancer cells to nampt inhibitors by nicotinic acid phosphoribosyltransferase neutralization” (2017) come the findings set out here.

Data set [1] has as its target T1, Nicotinate phosphoribosyltransferase (Homo sapiens) (UniProt Q6XQN6).
T1 sequence (whole entry): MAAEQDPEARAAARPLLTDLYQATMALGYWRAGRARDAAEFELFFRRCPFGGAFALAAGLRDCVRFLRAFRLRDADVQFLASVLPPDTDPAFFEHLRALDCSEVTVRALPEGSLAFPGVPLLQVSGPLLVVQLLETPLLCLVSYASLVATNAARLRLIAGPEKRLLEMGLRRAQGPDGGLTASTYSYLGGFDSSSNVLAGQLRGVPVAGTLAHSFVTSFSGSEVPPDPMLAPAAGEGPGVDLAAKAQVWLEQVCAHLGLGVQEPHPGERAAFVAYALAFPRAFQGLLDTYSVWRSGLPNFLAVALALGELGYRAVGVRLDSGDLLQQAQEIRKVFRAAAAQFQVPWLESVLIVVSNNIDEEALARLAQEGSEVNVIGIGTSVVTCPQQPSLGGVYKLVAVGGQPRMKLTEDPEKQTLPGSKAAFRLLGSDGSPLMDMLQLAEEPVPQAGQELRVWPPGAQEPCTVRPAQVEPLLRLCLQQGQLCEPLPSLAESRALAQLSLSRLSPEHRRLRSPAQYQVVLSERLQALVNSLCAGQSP
The experiment in a line: Inhibition of NAPRT in human OVCAR5 cells assessed as potentiation of NAMPT inhibitor FK866-induced cytotoxicity by measuring reduction in cell viability at 300 uM to 1 mM incubated for 72 hrs by SRB assay. Format: cell-based. On the technique in general: The SRB assay estimates cell density from bound dye.

Data set [2] in a line: Toxicity in NAMPT inhibitor 10 mg/kg, ip bid FK866 treated SCID mouse xenografted with human NAMALWA cells assessed as induction of obvious signs of clinical toxicity at 35 mg/kg, ip bid up to 45 days. Format: organism-based. Particulars: in vivo, 1080 h.
In another data set the test system is NAMALVA. The experiment in a line: Potentiation of NAMPT inhibitor 10 mg/kg, ip bid FK866-induced antitumor activity in human NAMALWA cells xenografted in SCID mouse assessed as increase in mouse survival at 35 mg/kg, ip bid up to 45 days. Format: functional, organism-based. On the technique in general: Xenograft models place foreign cells or tissue in a host animal.

Activity calls are given as the source filed them. No cut-off for these calls is given here.

For the compound `O=C(O)c1ccccc1O`, the inhibition entry in data set [1] was “Active”.

In the case of `CC(=O)Oc1ccccc1C(=O)O` [ASPIRIN], the Activity entry in data set [2] is “Non-Toxic”. In addition, the outcome in the data set with NAMALVA was Active.
